We go through 18 compounds from patent EP4585587A1, “PROPIONIC ACID DERIVATIVE AND USE THEREOF IN MEDICINE” (priority 2022, dated 2024).

Where a name gives a salt, the structure may show the parent alone. Read-outs that look alike come from different tables or passages of the source.

One test addresses T1, integrin α4β7 (Homo sapiens, UniProt P13612+P26010).
T1 sequence (P13612 34-1032): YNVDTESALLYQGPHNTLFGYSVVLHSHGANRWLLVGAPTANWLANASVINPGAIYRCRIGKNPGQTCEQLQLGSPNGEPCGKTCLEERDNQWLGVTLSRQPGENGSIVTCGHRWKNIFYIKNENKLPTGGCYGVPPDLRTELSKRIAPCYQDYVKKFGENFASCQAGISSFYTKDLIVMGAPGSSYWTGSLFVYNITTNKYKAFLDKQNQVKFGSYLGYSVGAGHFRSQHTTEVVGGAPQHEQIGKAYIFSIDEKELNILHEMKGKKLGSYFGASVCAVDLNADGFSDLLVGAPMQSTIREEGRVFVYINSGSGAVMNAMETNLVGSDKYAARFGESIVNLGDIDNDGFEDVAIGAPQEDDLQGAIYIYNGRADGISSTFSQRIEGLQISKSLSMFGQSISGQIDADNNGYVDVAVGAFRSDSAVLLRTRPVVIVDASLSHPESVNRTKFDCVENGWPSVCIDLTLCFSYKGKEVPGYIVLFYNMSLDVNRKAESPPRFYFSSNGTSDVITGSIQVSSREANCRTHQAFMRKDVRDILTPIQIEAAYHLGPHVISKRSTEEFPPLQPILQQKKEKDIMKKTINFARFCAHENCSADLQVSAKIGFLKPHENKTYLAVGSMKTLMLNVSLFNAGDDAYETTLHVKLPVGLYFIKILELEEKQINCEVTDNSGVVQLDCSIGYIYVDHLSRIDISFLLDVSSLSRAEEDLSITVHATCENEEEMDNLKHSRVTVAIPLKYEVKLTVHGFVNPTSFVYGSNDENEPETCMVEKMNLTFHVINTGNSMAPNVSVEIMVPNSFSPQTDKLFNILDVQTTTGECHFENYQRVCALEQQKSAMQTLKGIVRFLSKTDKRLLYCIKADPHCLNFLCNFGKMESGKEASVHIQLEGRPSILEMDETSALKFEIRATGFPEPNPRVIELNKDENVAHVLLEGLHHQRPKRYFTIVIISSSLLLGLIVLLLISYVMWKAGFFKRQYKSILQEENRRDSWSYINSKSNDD
T1 sequence (P26010 20-798): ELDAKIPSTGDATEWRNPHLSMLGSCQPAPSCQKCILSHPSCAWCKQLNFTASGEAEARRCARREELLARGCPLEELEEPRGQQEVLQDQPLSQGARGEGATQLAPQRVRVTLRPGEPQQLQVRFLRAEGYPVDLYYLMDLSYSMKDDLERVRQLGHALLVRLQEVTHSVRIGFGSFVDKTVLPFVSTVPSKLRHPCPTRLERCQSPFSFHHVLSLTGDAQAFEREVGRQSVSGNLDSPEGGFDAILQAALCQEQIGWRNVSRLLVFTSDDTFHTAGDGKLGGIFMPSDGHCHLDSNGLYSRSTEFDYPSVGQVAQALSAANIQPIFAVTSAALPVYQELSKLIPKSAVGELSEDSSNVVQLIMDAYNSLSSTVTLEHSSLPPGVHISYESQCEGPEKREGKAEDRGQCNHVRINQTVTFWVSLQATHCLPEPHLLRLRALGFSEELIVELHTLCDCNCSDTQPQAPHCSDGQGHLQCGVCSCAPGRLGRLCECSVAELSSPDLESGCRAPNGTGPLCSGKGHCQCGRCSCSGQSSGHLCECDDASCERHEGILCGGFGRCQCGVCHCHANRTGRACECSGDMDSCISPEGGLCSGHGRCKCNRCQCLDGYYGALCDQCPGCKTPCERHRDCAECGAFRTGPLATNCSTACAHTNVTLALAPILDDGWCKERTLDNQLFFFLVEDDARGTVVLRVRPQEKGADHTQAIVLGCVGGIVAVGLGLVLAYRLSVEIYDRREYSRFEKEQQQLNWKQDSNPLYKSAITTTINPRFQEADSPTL
The test is described as follows: Integrin α4β7 cell adhesion assay (RPMI8866 cells on MAdCAM-1). Format: cell-based. The settings on record: RPMI8866 cells, MAdCAM-1 coated plate, read-out: RPMI-8866 (α4β7)/MadCAM-1 IC50. The procedure:
MAdCAM-1 was formulated with TBS buffer to a final concentration of 2 µg/ml, 50 µl of the solution was transferred to a 96-well plate, and the plate was coated with same at 4°C overnight. The plate was washed with TBS buffer three times, then 150 µl of a blocking solution (TBS buffer containing 1% BSA) was added, and the plate was blocked at 37°C for 1 h. […] 50 µl of the cell suspension was transferred to a 96-well plate so that the cell density reached 2×10^5 cells/well. Then 1 µl of the compound at different concentrations or DMSO was added and the plate was incubated at 37°C for 1 h or 2 h. The plate was washed with TBS buffer to remove non-adherent cells. 50 µl of a substrate (4-nitrophenyl-N-acetyl-β-D-glucosaminide) was added and the plate was incubated at 37°C for 2 h. […] The IC50 value was calculated using GraphPad Prism 6 software.

The subject of a further test is integrin α4β1. The test is described as follows: Integrin α4β1-mediated cell adhesion assay (Jurkat cells on VCAM). Format: cell-based. Particulars: for IC50: Jurkat cells, VCAM coated plate, read-out: Jurkat (α4β1)/VCAM-1 IC50; for α4β1/α4β7: selectivity ratio of Jurkat (α4β1)/VCAM-1 IC50 to RPMI-8866 (α4β7)/MadCAM-1 IC50. The procedure: VCAM was formulated into a final concentration of 0.5 µg/ml with a coating buffer, 50 µl of the solution was transferred to a 96-well plate, and the plate was coated with same at 4°C overnight. The plate was washed with coating buffer three times, then 150 µl of a blocking solution (coating buffer containing 1% BSA) was added, and the plate was blocked at 37°C for 1 h. Jurkat cells were collected, washed twice using DPBS buffer, and then resuspended to 4 × 10^6 cells/ml with an action buffer. 50 µl of the cell suspension was transferred to a 96-well plate so that the cell density reached 2 × 10^5 cells/well. Then 1 µl of the test compound at different concentration or DMSO was added and the plate was incubated at 37°C for 1 h. The plate was washed with coating buffer to remove non-adherent cells. 50 µl of a substrate (4-nitrophenyl-N-acetyl-β-D-glucosaminide) was added and the plate was incubated at 37°C for 2 h. Finally, 90 µl of a termination solution (50 mM glycine and 5 mM EDTA, pH 10.4) was added. The OD value of the plate was read at 405 nm. • Coating buffer: DMEM+ 20 mM HEPES+ 0.4 mM MnCl2 • Action buffer: DMEM+ 20 mM HEPES+ 0.1% BSA+0.4 mM MnCl2 • DMEM: dulbecco's modified eagle medium; • HEPES: 2-[4-(2-hydroxyethyl)piperazin-1-yl]ethanesulfonic acid Table 1 Results of effects of compounds on α4β7- and α4β1-mediated cell adhesion

With `CC#Cc1cc(-c2c(C)cccc2C)c(F)c(C(CC(=O)O)NC(=O)C(CC(C)C)n2cc(CCN(C)CC3CC3(F)F)c(C(F)(F)F)cc2=O)c1F` (single isomer, unassigned) [Compound 7-2], the IC50 at integrin α4β7 (reported as class symbol) was below 10 nM. In the test with integrin α4β1, the IC50 is above 500 nM and the α4β1/α4β7 amounted to 182.

Regarding `CC#Cc1cc(-c2c(C)cccc2C)c(F)c(C(CC(=O)O)NC(=O)[C@H](CC(C)C)n2cc(CCN3CCC4(CC4)C3)c(C(F)(F)F)cc2=O)c1F` (single isomer, unassigned) [Compound 6-2], the IC50 at integrin α4β7 (reported as class symbol) is below 10 nM.

With `C#CC1CN(CCc2cn(C(CC(C)C)C(=O)NC(CC(=O)O)c3cc4c(c(-c5c(C)cc(F)cc5C)c3)CCC4)c(=O)cc2C(F)(F)F)C1` (single isomer, unassigned) [Compound 3-2], the IC50 on integrin α4β7 (reported as class symbol) was below 10 nM.

In the case of `Cc1ccc(F)c(C)c1-c1c(F)c(C(CC(=O)O)NC(=O)[C@H](CC(C)C)n2cc(CCN(C)C)c(C(F)(F)F)cc2=O)c(F)c2c1CCC2` (some centres unmarked) [Trifluoroacetate salt of compound 48-2], the IC50 on integrin α4β7 (numeric value or bound) was below 1 nM.

In the case of `COc1cc(C)c(-c2c(F)c(C(CC(=O)O)NC(=O)C(CC(C)C)n3cc(CCN(C)C)c(C(F)(F)F)cc3=O)c(F)c3c2CCC3)c(C)c1` (single isomer, unassigned) [Trifluoroacetate salt of compound 21-2], the α4β1/α4β7 in the test on integrin α4β1 came to 1586.

Turning to `Cc1cc(F)cc(C)c1-c1c(F)c(C(CC(=O)O)NC(=O)[C@H](CC(C)C)n2cc(CC3CN(C(C)C)C3)c(C(F)(F)F)cc2=O)c(F)c2c1CCC2` (some centres unmarked) [Trifluoroacetate salt of compound 32-2], on integrin α4β7 (numeric value or bound), the IC50 is below 1 nM. Also, in the test with integrin α4β1, the IC50 was above 100 nM and the α4β1/α4β7 amounted to 220.

In the case of `CC#Cc1cc(-c2c(C)cccc2C)c(F)c(C(CC(=O)O)NC(=O)[C@@H](CC(C)C)n2cc(CCN(CC)CC)c(C(F)(F)F)cc2=O)c1F` (some centres unmarked) [Trifluoroacetate salt of compound 12-2], at integrin α4β7 (numeric value or bound), the IC50 is below 0.5 nM. In the test on integrin α4β1, the IC50 is above 100 nM and the α4β1/α4β7 worked out at 354.

Turning to `CC#Cc1cc(-c2c(C)cccc2C)c(F)c(C(CC(=O)O)NC(=O)C(CC(C)C)n2cc(CC3CN(C(C)C)C3)c(C(F)(F)F)cc2=O)c1F` (single isomer, unassigned) [Trifluoroacetate salt of compound 18-2], the IC50 at integrin α4β7 (reported as class symbol) was below 10 nM. Also, in the test on integrin α4β1, the IC50 was above 500 nM and the α4β1/α4β7 is listed as 258.

On to `Cc1cc(F)cc(C)c1-c1c(F)c(C(CC(=O)O)NC(=O)[C@H](CC(C)C)n2cc(CCC3CCCN3C)c(C(F)(F)F)cc2=O)c(F)c2c1CCC2` (single isomer, unassigned) [Trifluoroacetate salt of compound 28-2], for which, on integrin α4β7 (reported as class symbol), the IC50 was below 10 nM. For the same compound, the α4β1/α4β7 in the test with integrin α4β1 was 130.

`Cc1cc(F)cc(C)c1-c1cc(C(CC(=O)O)NC(=O)[C@H](CC(C)C)n2cc(CC3CN(CC4CC4)C3)c(C(F)(F)F)cc2=O)cc2c1CCC2` (some centres unmarked) [Trifluoroacetate salt of compound 15-2]: the IC50 is below 1 nM on integrin α4β7 (numeric value or bound) and above 100 nM with integrin α4β1. Besides, in the test with integrin α4β1, the α4β1/α4β7 is recorded as 272.

Consider `CC#Cc1cc(-c2c(C)cccc2C)c(F)c(C(CC(=O)O)NC(=O)[C@H](CC(C)C)n2cc(CCC3CCCN3C)c(C(F)(F)F)cc2=O)c1F` (some centres unmarked) [Trifluoroacetate salt of compound 29-2], for which the IC50 is below 1 nM at integrin α4β7 (numeric value or bound) and above 200 nM with integrin α4β1. Further, in the test with integrin α4β1, the α4β1/α4β7 is 292.

Turning to `Cc1cccc(C)c1-c1c(F)c(C(CC(=O)O)NC(=O)C(CC(C)C)n2cc(CCN(C)C)c(C(F)(F)F)cc2=O)c(F)c2c1CCC2` (single isomer, unassigned) [Trifluoroacetate salt of compound 20-2], the IC50 at integrin α4β7 (reported as class symbol) is below 10 nM. For the same compound, in the test with integrin α4β1, the IC50 is above 500 nM and the α4β1/α4β7 stood at 648.

As for `CC#Cc1cc(-c2c(C)cccc2C)c(F)c(C(CC(=O)O)NC(=O)C(CC(C)C)n2cc(CCC3CCN(C)C3)c(C(F)(F)F)cc2=O)c1F` (single isomer, unassigned) [Trifluoroacetate salt of compound 27-2], the IC50 on integrin α4β7 (reported as class symbol) was below 10 nM. In addition, in the test on integrin α4β1, the IC50 is above 100 nM and the α4β1/α4β7 stood at 133.

In the case of `Cc1cc(F)cc(C)c1-c1c(F)c(C(CC(=O)O)NC(=O)C(CC(C)C)n2cc(CCC3CCN(C)C3)c(C(F)(F)F)cc2=O)c(F)c2c1CCC2` (centres unmarked) [Trifluoroacetate salt of compound 26-2], the α4β1/α4β7 in the test on integrin α4β1 is recorded as 177.

In the case of `COc1ccc(C)c(-c2c(F)c(C(CC(=O)O)NC(=O)[C@H](CC(C)C)n3cc(CCN(C)C)c(C(F)(F)F)cc3=O)c(F)c3c2CCC3)c1C` (single isomer, unassigned) [Compound 50-2], at integrin α4β7 (reported as class symbol), the IC50 is below 10 nM.

Turning to `COc1cc(C)c(-c2c(F)c(C(CC(=O)O)NC(=O)C(CC(C)C)n3cc(CCN(C)C)c(C(F)(F)F)cc3=O)c(F)c3c2CCC3)c(C)c1` (centres unmarked) [Compound 21-A], the α4β1/α4β7 with integrin α4β1 is given as 119.

`Cc1cc(F)cc(C)c1-c1c(F)c(C(CC(=O)O)NC(=O)[C@H](CC(C)C)n2cc(CC3CCN(C4CC4)CC3)c(C(F)(F)F)cc2=O)c(F)c2c1CCC2` (single isomer, unassigned) [Compound 24-2]: the IC50 on integrin α4β7 (reported as class symbol) is below 10 nM.

Take `Cc1cc(F)cc(C)c1-c1cc(C(CC(=O)O)NC(=O)C(CC(C)C)n2cc(CC3CCN(C(C)C)CC3)c(C(F)(F)F)cc2=O)cc2c1CCC2` (centres unmarked) [Trifluoroacetate salt of compound 22-2]: the α4β1/α4β7 with integrin α4β1 is recorded as 307.
